Several values for one entry are separate records, joined by “and”; a condition that tells them apart may be missing. Equal entries are not always repeated. Where two headings read alike, the source gives them in different places.

Common to all, as to type: biochemical
Assay [1] deals with T1, KLK14 (Homo sapiens, UniProt Q9P0G3).
T1 construct: purchased R&D Biosystems (Minneapolis, MN) / R&Dsystems; host or cells: mouse myeloma cells
T1 sequence (Q9P0G3 25-251): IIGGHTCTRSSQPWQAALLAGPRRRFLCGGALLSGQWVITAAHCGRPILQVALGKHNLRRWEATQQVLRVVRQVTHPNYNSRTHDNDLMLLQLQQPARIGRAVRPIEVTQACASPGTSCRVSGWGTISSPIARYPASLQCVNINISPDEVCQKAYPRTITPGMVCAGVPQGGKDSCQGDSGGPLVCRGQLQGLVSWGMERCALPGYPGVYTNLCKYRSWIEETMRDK
The assay can be described thus: Chromogenic assay, KLK14. Particulars: S-2288 500 μM, highest conc. of 1.001 50 μM. An excerpt: (§1) Human Kallikrein Proteins: Recombinant human KLK5 expressed in HEK293 was obtained from SpeedBio (Gaithersburg, MD). Recombinant proenzyme KLK-7 and recombinant proenzyme KLK-14 both expressed in mouse myeloma cells were from R&D Biosystems (Minneapolis, MN). Plasmin and thrombin were from Haematologic Technologies (Essex Junction, VT). Trypsin and Chymotrypsin were bought from Worthington Biochemical Corporation (Lakewood, NJ) and plasma kallikrein was from Prospec (East Brunswick, NJ). Neutrophil Elastase was obtained from Innovative Research (Peary Court, MI). Bovine recombinant enterokinase expressed in E. coli was bought from Sigma (St. Louis, MI). Matriptase expressed in E. coli was obtained from Enzo Life Sciences (Farmingdale, NY). The control inhibitors Nafamostat mesylate was from Sigma (St. Louis, MI) and (2-(2-fluorophenyl)-5,6,7,8-tetrahydro-4H-benzo[4,5]thieno[2,3-d][1,3]oxazin-4-one was from Interbioscreen (Moskow, Russia).
(§2) Substrates: S-2288 (D-Ile-Pro-Arg-pNA), CS-PSA (MeO-Suc-Arg-Pro-Tyr-pNA), S-2266 (H-D-Val-Leu-Arg-pNA) and S-2288 (H-D-Ile-Pro-Arg-pNA) were bought from Diapharma (West Chester, OH). MeOSuccAla-Ala-Pro-Val-pNA was purchased from Sigma (St Louis, MI). The substrates were dissolved in water at 10 mM and were frozen in aliquots at −20° C.
(§3) Activation of KLK-7 and KLK-14: 150 μL 8 μM solution of the proenzymes of KLK-7 or KLK-14 in 50 mM Tris, 10 mM CaCl2, 150 mM NaCl, 0.05% (w/v) Brij-35, pH 7.5 were mixed with 150 μL 10 μg/mL bovine enterokinase in the same buffer and incubated for 2 h for KLK-7 and 1 h for KLK-14 at 37° C. After the incubation period, activation was stopped by addition of 6 μL 0.5 M EDTA pH 8.0.
Assays: All assays were performed in 384 well polystyrene plates coated overnight with 0.1% Tween 20 at 4° C. The plates were then washed twice with 100 μL water and dried. […] The assays were monitored at 37° C. in a multi well plate reader at a wavelength of 405 nm (Molecular Devices, San Jose, CA) for 1 h. […]
(§4) Data analysis: The progress curves of substrate hydrolysis were analyzed by linear regression of the final 20 min of the reaction. […]

In assay [2] the target is T2, Trypsin (UniProt P00760).
T2 sequence (P00760 1-246): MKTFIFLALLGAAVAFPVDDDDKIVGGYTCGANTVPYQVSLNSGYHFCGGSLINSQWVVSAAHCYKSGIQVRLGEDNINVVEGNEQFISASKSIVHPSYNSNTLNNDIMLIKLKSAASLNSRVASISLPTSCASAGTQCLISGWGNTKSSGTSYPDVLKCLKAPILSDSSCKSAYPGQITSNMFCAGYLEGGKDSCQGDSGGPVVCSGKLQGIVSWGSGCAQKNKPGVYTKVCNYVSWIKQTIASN
Description: Chromogenic assay, trypsin. Particulars: Trypsin 0.1 nM; S-2288 500 μM; highest conc. of 1.001 50 μM.
Text: as §1, with “Russia). […]” for “Russia).”
(§5) Assays: All assays were performed in 384 well polystyrene plates coated overnight with 0.1% Tween 20 at 4° C. […] The assays were monitored at 37° C. in a multi well plate reader at a wavelength of 405 nm (Molecular Devices, San Jose, CA) for 1 h. […]
as §4

For assay [3], the target named is T3, Plasmin (Homo sapiens, UniProt P00747).
T3 construct: purchased Haematologic Technologies (Essex Junction, VT)
The assay can be described thus: Chromogenic assay, plasmin. Particulars: Plasmin 1.0 nM; S-2288 500 μM; highest conc. of 1.001 50 μM.
Text: as §1, with “Russia). […]” for “Russia).”
as §5, §4

Assay [4] has as its target T4, Neutrophil Elastase (Homo sapiens, UniProt P08246).
T4 sequence (P08246 30-267): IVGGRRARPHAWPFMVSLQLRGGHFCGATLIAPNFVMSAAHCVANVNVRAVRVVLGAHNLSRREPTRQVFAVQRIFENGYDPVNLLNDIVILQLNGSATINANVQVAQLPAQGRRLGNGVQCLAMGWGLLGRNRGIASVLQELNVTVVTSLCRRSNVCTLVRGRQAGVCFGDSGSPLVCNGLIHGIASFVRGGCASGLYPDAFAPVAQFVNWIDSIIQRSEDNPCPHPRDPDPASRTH
The assay can be described thus: Chromogenic assay, neutrophil elastase. Particulars: Neutrophil Elastase 0.5 nM; Elastase substrate 1 200 μM; highest conc. of 1.001 100 μM.
Text: as §1, with “Russia). […]” for “Russia).”
as §5, §4

Assay [5] concerns the target T5, KLK7 (Homo sapiens, UniProt P49862).
T5 construct: purchased R&D Biosystems (Minneapolis, MN) / R&Dsystems; host or cells: mouse myeloma cells
The assay can be described thus: Recombinant KLK7 chromogenic IC50 assay.
Text: as §1, §2, §3
Assays: All assays were performed in 384 well polystyrene plates coated overnight with 0.1% Tween 20 at 4° C. The plates were then washed twice with 100 μL water and dried. For the determination of IC50 values, the inhibitors were diluted in serial dilutions of 1:3 intervals into pure DMSO at 50 fold of the intended final concentrations in the assays. Usually eight inhibitor dilutions and one DMSO control were prepared. The substrates were diluted into water at 2.2-fold the final concentration in the assay mixture. The wells of the plate were filled with 50 μL of the enzyme diluted in 2× assay buffer (100 mM Tris, 200 mM NaCl, 0.2% PEG, 0.01% Tween, 2 mM EDTA, pH 8.0) at twofold the intended concentration. Then 5 μL DMSO, 2.2 μL inhibitor and 45 μL substrate were added to start the reaction. The assays were monitored at 37° C. in a multi well plate reader at a wavelength of 405 nm (Molecular Devices, San Jose, CA) for 1 h. The tool inhibitor, nafamostat, was used as a control for trypsin, thrombin, KLK-5 and KLK-14 at 10 μM maximal concentration and (2-(2-fluorophenyl)-5,6,7,8-tetrahydro-4H-benzo[4,5]thieno[2,3-d][1,3]oxazin-4-one for KLK-7 at 5 μM.
The table summarizes assay conditions for the individual enzymes:
Data analysis: The progress curves of substrate hydrolysis were analyzed by linear regression of the final 20 min of the reaction. Fit of the dose response of the resulting rates to the following equation yielded the IC50:
[formula] with 1) c: the background rate at the highest inhibitor concentration; 2) d: the rate of the control reaction; 3) IC50: the IC50 of the inhibitor; 4) x: the inhibitor concentration; and 5) b: the slope.
Proteases: KLK5 (SpeedBioSystems); KLK7 (R&Dsystems) was activated with enterokinase (2 hours, 37° C.) prior to assay; Trypsin (Sigma Aldrich); Chymotrypsin (Sigma Aldrich); Factor Xa (Haematologic Technologies); Plasmin (Haematologic Technologies); KLK14 (R&Dsystems) was activated with enterokinase (1 hour, 37° C.) prior to assay; Thrombin (Haematologic Technologies); Neutrophil Elastase (Athens Research&Technology); and KLK1 (Prospec).

For assay [6], the target named is T6, Thrombin (Homo sapiens, UniProt P00734).
T6 construct: purchased Haematologic Technologies (Essex Junction, VT)
Description: Chromogenic assay, thrombin. Particulars: Thrombin 0.5 nM; S-2288 500 μM; highest conc. of 1.001 100 μM.
Text: as §1, with “Russia). […]” for “Russia).”
as §5, §4

T3 sequence (P00747 581-810 limits assumed, species assumed): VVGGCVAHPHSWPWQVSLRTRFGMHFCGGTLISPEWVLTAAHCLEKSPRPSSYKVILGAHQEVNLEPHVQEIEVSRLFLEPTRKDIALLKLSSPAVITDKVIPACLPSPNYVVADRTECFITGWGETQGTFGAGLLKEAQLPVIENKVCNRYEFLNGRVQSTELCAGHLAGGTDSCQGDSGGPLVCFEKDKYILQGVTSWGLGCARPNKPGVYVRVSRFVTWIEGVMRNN
T3 sequence (P00747 97-580 partner limits assumed, species assumed): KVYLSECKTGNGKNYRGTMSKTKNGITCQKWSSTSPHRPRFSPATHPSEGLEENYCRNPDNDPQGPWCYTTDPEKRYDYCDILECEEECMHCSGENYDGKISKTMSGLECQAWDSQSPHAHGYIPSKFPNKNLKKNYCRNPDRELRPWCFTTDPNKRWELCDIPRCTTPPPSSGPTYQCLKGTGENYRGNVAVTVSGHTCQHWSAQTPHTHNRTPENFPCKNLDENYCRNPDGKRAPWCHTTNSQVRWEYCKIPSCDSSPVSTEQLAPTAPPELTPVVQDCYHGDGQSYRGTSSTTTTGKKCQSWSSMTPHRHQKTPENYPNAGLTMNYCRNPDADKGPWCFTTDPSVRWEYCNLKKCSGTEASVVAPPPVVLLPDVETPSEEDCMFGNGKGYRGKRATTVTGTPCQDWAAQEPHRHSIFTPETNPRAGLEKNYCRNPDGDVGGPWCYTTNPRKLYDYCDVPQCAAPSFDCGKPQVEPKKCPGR
T5 sequence (P49862 30-253): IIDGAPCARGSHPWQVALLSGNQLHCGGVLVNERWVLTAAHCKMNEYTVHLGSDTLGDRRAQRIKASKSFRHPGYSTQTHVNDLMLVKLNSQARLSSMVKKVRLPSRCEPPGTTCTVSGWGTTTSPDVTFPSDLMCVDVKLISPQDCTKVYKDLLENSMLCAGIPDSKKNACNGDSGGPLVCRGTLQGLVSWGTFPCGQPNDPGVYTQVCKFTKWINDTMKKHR

With `CS(=O)(=O)c1cc(CO)ccc1-c1nc2cc3c(cc2c(=O)o1)OCCO3` [Compound 1.001, 2-(4-(Hydroxymethyl)-2-(methylsulfonyl)phenyl)-7,8-dihydro-4H-[1,4]dioxino[2′,3′:4,5]benzo[1,2-d][1,3]oxazin-4-one], the 50% inhibitory concentration (IC50) in assay [1] (KLK14 1 nM) was 0.442 µM; in assay [1] (KLK14 5 nM), 0.633 µM; in assay [2], 1.66 µM and 1.36 µM and 2.2 µM; in assay [3], 3.36 µM and 4.2 µM; in assay [4] it was more than 50 µM; in assay [5] (Table 2, assay protocol of Example 3, read-out: Recombinant KLK7 enzyme (IC50)) it was 0.34 µM. Also, the IC50 was 0.647 µM and 0.693 µM in assay [5] (Table 3, KLK7 20 nM, CS-PSA 500 μM, highest conc. of 1.001 20 μM, read-out: IC50 (μM), KLK7); more than 10 µM in assay [6]. Besides, the “Inhibition of KLK7, conclusion in words” value in assay [5] (conclusion from Table 3) is given as “inhibitor”.

For `CS(=O)(=O)c1cc(CO)ccc1C(=O)Nc1cc2c(cc1C(=O)O)OCCO2` [Compound 408, reference compound], in assay [1] (KLK14 5 nM), the “IC50 (μM), KLK14” value is recorded as “No inhibition”. In assay [2], the “IC50 (μM), Trypsin” value is listed as “No inhibition”. For the same compound, the “IC50 (μM), Plasmin” value in assay [3] is “No inhibition”. The IC50 in assay [4] was more than 500 µM. Moreover, in assay [5] (Table 3, KLK7 20 nM, CS-PSA 500 μM, highest conc. of 1.001 20 μM), the “IC50 (μM), KLK7” value is recorded as “No inhibition”. In assay [6], the “IC50 (μM), Thrombin” value is listed as “No inhibition”.
